Data taken from patent publication US9056108B2, “Method of treating atrial fibrillation” (Gilead Sciences, Inc., priority 2009, dated 2015).
Like-named read-outs stand apart in the source and are kept apart here.

Legend:
[1] = system: female rabbit isolated heart treated with E-4031; assay: Torsades de pointes in rabbit isolated heart treated with E-4031; details: E-4031 60 nM
Experimental: Each rabbit was sedated using intramuscular injections of 6 mg/kg xylazine and 40 mg/kg ketamine and then anesthetized using a “cocktail” of ketamine (15 mg/kg)+xylazine (4 mg/kg) in 1.5 ml saline. The ketamine/xylazine cocktail was administered as an i.v. bolus via the marginal ear vein. After anesthesia was confirmed, the thorax was opened and the heart was quickly excised. The heart was placed in a modified Krebs-Henseleit (K-H) physiological saline solution at room temperature. […] CPP was measured (with a Biopac MP 150 pressure transducer, Goleta, Calif.) from a side port of the aortic catheter. To facilitate exit of fluid from the chamber of the left ventricle (LV), the leaflets of the mitral valve were trimmed with fine spring-handled scissors. The right atrial wall was partially removed.
Complete AV block was induced by thermo-ablation of the AV nodal area. […] A bipolar Teflon-coated electrode was placed on the right ventricular septum to pace the heart. Electrical stimuli 3 ms in width and 3-fold threshold amplitude were delivered to the pacing electrode at a frequency of 1 Hz throughout the experiments using a Grass S48 stimulator (W. Warwick, R.I.).
After initiation of ventricular pacing, a 30-40 min equilibration delay was allowed for heart rate (and CPP) to achieve a steady state, an essential experimental condition for recording a good quality monophasic action potential (MAP) recording.
Monophasic action potential (MAP) and ECG electrodes from Harvard Apparatus Inc. (Holliston, Mass.) were used to record heart rate (in beats per minute, or bpm), left ventricular MAPs and a bipolar ECG MAP electrodes were pressure contact Ag—AgCl cells attached to a circular holder with springs to keep the electrodes in contact with the LV epicardial surface. Two MAP electrodes were placed on the epicardial ventricular free wall below the level of the atrial-ventricular valves, one at the base to record a basal MAP and one at the apex to record an apical MAP. […] Signals were saved on a computer hard disk for subsequent analysis. Bipolar electrocardiograms (ECG) were generated using an isolated-heart ECG apparatus (Harvard Apparatus, Holliston, Mass.) attached to Biopac amplifier system.

[2] = system: spontaneous (intrinsic) atrial rate in guinea pig isolated hearts; assay: Spontaneous atrial rate in guinea pig isolated hearts; details: verapamil 10 μM; from 225±3
From the text: To perfuse the heart by the Langendorff method, the transected aorta was slid onto a glass cannula and secured by a ligature. […] To facilitate the exit of fluid from the left ventricle, the leaflets of the mitral valve were trimmed with fine spring-handled scissors. […] Experimental interventions were always preceded and followed by control measurements.

patients with AF = details: DIONYSOS trial, 6 months of follow-up; cited from earlier work
[3] = cited from earlier work
[4] = system: rabbit isolated heart treated with acetylcholine; assay: Electrically-induced atrial fibrillation in rabbit isolated heart treated with acetylcholine
Experimental: Each rabbit was sedated using intramuscular injections of 6 mg/kg xylazine and 40 mg/kg ketamine and then anesthetized using a “cocktail” of ketamine (15 mg/kg)+xylazine (4 mg/kg) in 1.5 ml saline. The ketamine/xylazine cocktail was administered as an i.v. bolus via the marginal ear vein. After anesthesia was confirmed, the thorax was opened and the heart was quickly excised. The heart was placed in a modified Krebs-Henseleit (K-H) physiological saline solution at room temperature. The K-H solution contained (in mmol/L): NaCl 118, KCl 2.8, KH2PO4 1.2, CaCl2 2.5, MgSO4 0.5, pyruvate 2.0, glucose 5.5, Na2EDTA 0.57 and NaHCO3 25. The solution was continuously gassed with 95% O2 and 5% CO2, and its pH was adjusted to 7.4. The aorta was rapidly catheterized and the heart was perfused by the method of Langendorff with K-H solution warmed to 36-36.5° C. at a rate of 20 mL/min with a roller pump (Gilson Minipuls3, Middleton, Wis.). CPP was measured (with a Biopac MP 150 pressure transducer, Goleta, Calif.) from a side port of the aortic catheter. To facilitate exit of fluid from the chamber of the left ventricle (LV), the leaflets of the mitral valve were trimmed with fine spring-handled scissors. The right atrial wall was partially removed. […]

[5] = system: isolated canine coronary-perfused right atria; assay: Electrophysiology in isolated coronary-perfused canine right atrial preparations; details: in presence of ACh 1 μM, ranolazine 5 μM, dronedarone 10 μM
Experimental: Experiments were performed using isolated coronary-perfused canine right atrial (RA) and left ventricular (LV) preparations (≈3×1.5×1 cm). Isolation and perfusion of the preparations were as previously described.^9, 15, 16 Briefly, preparations were dissected from hearts removed from anesthetized (sodium pentobarbital) adult mongrel dogs (20-30 kg). Unfolded RA with attached rim of the right ventricle was cannulated and perfused with cold cardioplegic solution (4-8° C.) through the ostium of the right coronary artery; the LV wedge was perfused through a diagonal branch of the left anterior descending coronary artery. Unperfused tissue was removed with a razor blade. Cut ventricular and atrial branches were ligated using silk thread. The preparations were then transferred to a temperature-controlled bath and arterially-perfused with Tyrode's solution by use of a roller pump. The composition of the Tyrode's solution was (in mM): NaCl 129, KCl 4, NaH2PO4 0.9, NaHCO3 20, CaCl2 1.8, MgSO4 0.5, and D-glucose 5.5, buffered with 95% O2 and 5% CO2 (37±0.5° C., pH=7.35)
Transmembrane action potential (AP) recordings were obtained using floating glass microelectrodes at a sampling rate of 40 kHz. A pseudo-electrocardiogram (ECG) was recorded using two electrodes consisting of Ag/AgCl half cells placed in the Tyrode's solution bathing the preparation, 1.0 to 1.5 cm from the two opposite sides of the atrial or ventricular coronary-perfused preparations. Conduction time was approximated by the duration of “P wave” in atria and “QRS complex” in ventricles, at a level representing 10% of “P wave” and “QRS” amplitude. Diastolic threshold of excitation (DTE) was determined by increasing stimulus intensity in 0.01 mA steps. Effective refractory period (ERP) was measured by delivering premature stimuli at progressively shorter S1-S2 intervals after every 10 basic beats at a pacing cycle length (CL) of 500 ms (5 ms steps; 2 times DTE). Post-repolarization refractoriness (PRR) was recognized when ERP exceeded action potential duration measured at 90% repolarization (APD90) in the ventricle and APD measured at 70% repolarization (APD70) in atria. Ventricular ERP was coincident with APD90, whereas atrial ERP was generally coincident with APD70-75.^9 The shortest S1-S1 permitting 1:1 activation was measured by progressively shortening pacing CL starting from a CL of 500 ms.
Stable AP recordings could not be readily obtained in the vigorously contracting perfused preparations. The largest recorded maximum rate of rise of the AP upstroke (Vmax) values per experimental condition were taken for statistical comparison. Only APs having amplitudes of at least 100 mV were considered in the analysis. The largest Vmax criterion was used because this was associated with the largest amplitude and the most negative resting membrane potential, depicting full or near full impalement. In determining use-dependent depression of Vmax, values were normalized to the Vmax value at a CL of 500 ms for each experiment and then averaged.
Because of their dependence on peak INa, Vmax, DTE, PRR, and conduction time as well the shortest S1-S1 interval permitting 1:1 activation are referred to as INa-dependent parameters.
The equilibration period for the coronary-perfused preparations was 30-120 min. The preparations were exposed to 5 μM ranolazine, 10 μM dronedarone (after 30 min washout of ranolazine), and the combination of these agents for at a period of at least 20 min. In time-control experiments, 20 minutes was sufficient to achieve steady-state in the effects of each of the drugs to alter electrophysiologic parameters. Recordings were obtained at a cycle length (CL) of 500 and 300 ms, unless otherwise indicated. […] When determining the shortest S1-S1 pacing rate permitting 1:1 activation, the stimulation intensity was DTE x 2, determined at a CL of 500 ms.

[6] = system: ACh-mediated persistent AF in isolated canine coronary-perfused right atria; assay: Acetylcholine (ACh)-mediated persistent AF model in coronary-perfused right atria; details: ranolazine 5 μM, dronedarone 10 μM
Experimental: To assess the anti-AF potential of ranolazine, dronedarone, and their combination, we used an acetylcholine (ACh, 1.0 μM)-mediated AF model. In the presence of ACh, premature electrical stimulation (PES) or rapid pacing (CL=50-80 ms) induces persistent AF in 100% of canine coronary-perfused right atrial preparations.^9 The effect of the drugs was assessed to prevent (series 1) the induction of AF. In a separate set of preparations, the ability of these agents was evaluated to terminate (series 2) persistent AF. In the first series, ACh was added to the perfusate 20-30 min after the start of perfusion with 5 μM ranolazine, 10 μM dronedarone, or the combination of these agents. This was followed by attempts to induce the arrhythmia electrically. In the second series, the agents were added to the perfusate during ACh-mediated persistent AF (on the 5-6th minutes after the start of the arrhythmia). In cases in which the drug terminated AF, we attempted to re-induce the arrhythmia with rapid pacing.

[7] = ACh 1 μM-mediated persistent AF

SMILES: Cc1cccc(CCN2CCC(C(=O)c3ccc(NS(C)(=O)=O)cc3)CC2)n1 [E-4031, N-[4-[[1-[2-(6-Methyl-2-pyridinyl)ethyl]-4-piperidinyl]carbonyl]phenyl]methanesulfonamide]
- Occurrences of torsades de pointes (TdP) (hearts) ([1]; dronedarone 10 μM): 4/6
- TdP (FIG. 18) ([1]; dronedarone 0.1-0.3 μM): induced spontaneous and 3-sec pause-triggered episodes of TdP
- Incidence of TdP and EADs ([1]; dronedarone 0.3-10 μM, ranolazine 6 and 10 μM): markedly increased the incidence of torsades de pointes

SMILES: COc1ccc(CCN(C)CCCC(C#N)(c2ccc(OC)c(OC)c2)C(C)C)cc1OC (stereo not shown) [verapamil]
- Spontaneous atrial rate [2]: 25±24 beats/min

SMILES: CCCCc1oc2ccccc2c1C(=O)c1cc(I)c(OCCN(CC)CC)c(I)c1 [amiodarone]
- Rate of recurrence of AF (patients with AF): 42%
- Patients who discontinue use due to intolerant side effects ([3]; after one year): 8-18%
- Extracardiac complications ([3]; first year of treatment): up to 15%
- Extracardiac complications ([3]; longer term treatment): up to 50%

SMILES: O=C(NCC1CCCCN1)c1cc(OCC(F)(F)F)ccc1OCC(F)(F)F (stereo not shown) [Flecainide]
- Abolition of inducible AF (hearts) ([4]; in presence of ACh, dronedarone 0.3 μM alone, flecainide positive control): abolished all episodes of AF

SMILES: CC(=O)OCC[N+](C)(C)C [ACh, Acetylcholine]
- Shortest S1-S1 (shortest CL permitting 1:1 activation) ([5]; in ms (unit assumed)): 56 ± 7
- APD90 ([5]; pectinate muscle, CL of 500 ms): 41 ± 6 ms
- ERP ([5]; pectinate muscle, CL of 500 ms): 52 ± 9 ms
- Termination Persistent AF [6, 7]: 0%
- Termination Persistent AF (atria terminated/atria tested) [6, 7]: 0/10
- Induction of Persistent AF ([6]; in presence of ACh 1 μM): 100%
- Inducibility of AF ([4]; S1S2 protocol, acetylcholine 0.6-1 μM, ranolazine 6 μM in presence of 0.3 μM dronedarone): 100%
